Entries after “also recorded” stand apart in the source; their conditions may differ.
How the values were obtained:
[1] = tested on: TNBS-induced colonic inflammation; test: TNBS model, Compound N and comparison with 5-ASA; assay type: in vivo, rats
Protocol: Male Sprague-Dawley rats (200-250 g) were housed in standard cages (2 per cage) and fed rat chow and tap water ad libitum. After an overnight fast, rats were brought into the laboratory and randomized into treatment groups. Colitis was induced by intrarectal administration of 0.5 ml of TNBS solution (50 mg/kg in 50% ethanol) using a 1 ml syringe attached to a 5 cm polyethylene catheter. Control animals received saline (0.9%) or a 1 % methyl cellulose suspension at identical time points.
Three days after TNBS administration, the rats were sacrificed and the colons excised and opened longitudinally.
Compound N was subjected to a series of TNBS activity tests as just described.
Groups of rats (11 rats/group) were administered Compound N (10 mg/kg po), 5-ASA (10 mg/kg po), 5-ASA (300 mg/kg po), or the methylcellulose vehicle 1 hour prior to the TNBS enema. After 3 days the rats were sacrificed and the colonic damage morphologically evaluated.
Groups of rats, were administered increasing doses of Compound N (0-100 mg/kg-po) 1 hour prior to TNBS enema. In these experiments the endpoint was macroscopic assessment.

[2] = tested on: inflammatory bowel disease; conditions: cited from earlier work; for effectiveness in small bowel inflammation / side-effects (in words): IBD patients
[3] = tested on: TNBS induced model of colitis; conditions: only if multiple high doses administered intra-rectally; cited from earlier work
[4] = PK parameter estimates, 30 mg/kg po (Table 1); assay type: in vivo, rats; conditions: Compound N relative to Compound A, rats, 30 mg/kg po; 30 mg/kg
Protocol: The bioavailability of compound N is depicted in FIG. 10 as well. |(NRTs Dosed 30 mg/kg po in 1% Methyl Cellulose, n = 3 rats/NRT)

[5] = tested on: inducible nitric oxide synthetase (iNOS); conditions: cited from earlier work
[6] = tested on: senescence accelerated mice; conditions: cited from earlier work
[7] = following ischemia; cited from earlier work
lethality induced by LPS = conditions: various rodent models of septic shock; cited from earlier work
[8] = tested on: adjuvant induced arthritis; test: Rat adjuvant induced arthritis model of chronic inflammation; assay type: in vivo; conditions: Compound A 100 mg/kg po or dexamethasone 0.1 mg/kg, daily 7 days, vs adjuvant
Protocol: Confirmation of the anti-inflammatory activity of Compound A was sought in another related biological test-the rat adjuvant induced arthritis model of chronic inflammation. This model was selected because almost all of the anti-IBD agents also show efficacy in standard arthritis models. In this model Compound A was tested at 100 mg/kg, po in a 1 % methyl cellulose suspension. On day 0 all animals received an injection of either Mycobacterium butyricum (100μL, 20 mg/mL in mineral oil) or mineral oil in the base of the tail. 14 days after this injection, rat paws were measured and all the rats were randomized into 3 treatment groups of 8. A control adjuvant group (group without further treatment), a group to be treated with dexamethasone (steroid reference) and a group to treated with Compound A. Rats received Compound A 100 mg/kg, po, or dexamethasone 0.1 mg/kg, op, daily until day 21 (7 days dosing). On day 21 rats were sacrificed. Paw measurements were taken after 5 and 7 days treatment.

[9] = 0-100 mg/kg po, 1 hour prior to TNBS

Nc1ccc(O)c(C(=O)O)c1 [Compound 5-ASA]
effect on TNBS-induced colonic inflammation, 5-ASA 10 mg/kg ([1]; 10 mg/kg po, 1 hour before TNBS): no effect
effect on TNBS-induced colonic inflammation, 5-ASA 300 mg/kg ([1]; 300 mg/kg po, 1 hour before TNBS): no effect
time to full efficacy ([2]; 5-ASA therapy): 6-8 weeks
response in Crohn's disease [2]: poor
response in early ulcerative colitis [2]: fair to mild
response in severe ulcerative colitis [2]: poor
protection, 5-ASA intra-rectal [3]: 50%

CC(C)(C)NC(=O)c1ccc(N)cc1 [Compound N, N-tert-butyl-4-aminobenzamide]
clearance / systemic exposure / variability (in words) [4]: lower clearance; also recorded: overall greater systemic exposure; also recorded: relatively low variability in plasma concentration
colonic morphological score, dose-response (in words) [1, 9]: dose=dependent reduction in the colonic morphological score
significance of protection [1, 9]: only significant (p <0.05) at the 10, 30 and 100 mg/kg doses
efficacy, 10 mg/kg po, Compound N ([1]; 10 mg/kg po single dose, 1 hour before TNBS): excellent efficacy
activity relative to Compound A ([1]; TNBS activity tests): better activity than that of Compound A
protection ([1]; TNBS activity tests): 75%

CC(C)(C)[N+]([O-])=Cc1ccccc1 [PBN, α-phenyl-t-butyl nitrone]
block of iNOS [5]: block inducible nitric oxide synthetase
increase of life span [6]: one third
trapping of reactive oxygen species and/or secondary free radicals [7]: trap reactive oxygen species and/or secondary free radicals
protection against lethality induced by LPS (lethality induced by LPS): consistent and well documented protection

C[C@@H]1C[C@H]2[C@@H]3CCC4=CC(=O)C=C[C@]4(C)[C@@]3(F)[C@@H](O)C[C@]2(C)[C@@]1(O)C(=O)CO [dexamethasone, reference compound]
inhibition of the inflammatory response [8]: significant inhibition of the inflammatory response (p<0.005)

O=C(O)c1cc(/N=N/c2ccc(O)c(C(=O)O)c2)ccc1O [olsalazine]
effectiveness in small bowel inflammation [2]: Neither sulfasalazine nor olsalazine are effective
side-effects (in words) [2]: side effects are reduced

Nc1ccc(S(=O)(=O)Nc2ccccn2)cc1 [sulfapyridine]
side-effects (in words) [2]: significant side-effects such as reversible sperm abnormalities, dyspepsia or allergic reactions to the sulpha component
patients who cannot tolerate ([2]; sulfapyridine component of sulfasalazine): at least 20 % of patients

O=C(O)c1cc(/N=N/c2ccc(S(=O)(=O)Nc3ccccn3)cc2)ccc1O [sulfasalazine]
response in Crohn's disease [2]: poor
effectiveness in small bowel inflammation [2]: Neither sulfasalazine nor olsalazine are effective
response in early ulcerative colitis [2]: fair to mild
response in severe ulcerative colitis [2]: poor

From patent US6194465A, “Benzamide therapeutics for the treatment of inflammatory bowel disease” (priority 1999, dated 2001)
